“Also recorded” adds a separate entry of the source. No end group written: not given here.

The target in assay [1] is T1, regulatory RIIβ subunits of PKA (Rattus norvegicus, UniProt P12369).
T1 construct: Prof; Dr. Friedrich W. Herberg, University of Kassel, Germany (obtained from an academic laboratory, not a vendor)
The assay can be described thus: RII overlay of membrane-bound (SPOT) peptides, radiolabelled RIIβ as probe, densitometry. Format: binding. As to conditions: in words. The text has this:
(§1) Peptide libraries were synthesized by means of automatic SPOT synthesis on Whatman 50 cellulose membranes according to standard protocols using Fmoc chemistry and AutoSpot Robot ATE 222 (Intavis Bioanalytical Instruments AG, Cologne). The protective groups of the amino acid side chains were removed using a mixture of trifluoroacetic acid (TFA) in dichloromethane (DCM) (Frank, 1992; Kramer and Schneider-Mergener, 1998). For control, spots (about 50 nmol of peptide per spot) were cut from the cellulose membrane, removed from the membrane by treatment with 0.05 M NaOH, and analyzed using HPLC and MALDI-TOF mass spectrometry.
(§2) • 1. Regulatory RIIα (human) and RIIβ (rat) subunits of PKA, obtained from Prof. Dr. Friedrich W. Herberg, University of Kassel, Germany. • 2. Catalytic subunits of PKA, Promega, Mannheim, Germany, Order No. V5161 • 3. [γ-^32P]ATP, 5000 Ci/mmol, Amersham Biosciences, Brunswick, Germany, Order No. AA0018 • 4. Sephadex G 50, medium Pharmacia, Order No. 17-0043-01 • 5. Phosphate-buffered saline (PBS)
(§3) The ATP concentration was adjusted to 10 μM by addition of non-radioactive ATP (addition of 5 μl of a 1 mM solution). The batch was incubated on ice for another 50 min.
(§4) The reaction was quenched by adding dextran blue and removing free nucleotides. The free ATP was removed on a Sephadex G50 column.
(§5) Non-incorporated nucleotides were separated from the RII subunits by fractionation on Sephadex G 50 columns. • 1. Swelling of the Sephadex G 50 material: 20 g thereof was allowed to swell in 400 ml of PBS at room temperature overnight. Non-settled material was subsequently removed with a Pasteur pipette. The swollen material was aliquoted in 50 ml Falcon tubes and stored at 4° C. For preservation, sodium azide was added to make a final concentration of 0.01%. • 2. The material was poured into a 10 ml sterile disposable pipette sealed with a glass sphere. To settle the column bed, 50 ml of PBS containing 1 mg/ml BSA (bovine serum albumin) was allowed to pass.
(§6) Until used, the column was sealed with parafilm at the top thereof. • 3. The labelled RII subunits (500 μl), together with dextran blue (70 μl of a 20 mg/ml solution), were applied on the column (overall volume=570 μl). • 4. The sample was allowed to migrate into the matrix, followed by filling up with PBS. • 5. A short time before the dextran blue was eluted, collection of fractions was begun (2 fractions of 1.5 ml each, the other fractions 1 ml each). • 6. To determine the incorporation of ^32P, 1% (5.7 μl) of sample upstream of the column (corresponding to 1% of the radioactivity employed) and 3 μl of each fraction were used. • 7. The fractions of the first peak including the probe were combined. The incorporation rate in % was calculated and the specific activity (cpm/μg of protein) was determined.
(§7) • 1. The proteins (40 μg) were separated by means of SDS-PAGE and transferred on a PVDF membrane (PVDF: polyvinylidene fluoride) using a semi-dry electroblotting procedure. The membrane-associated proteins were stained with Ponceau S in order to identify the marker proteins on the membrane. Destaining was effected using TBS. • 2. The membrane was incubated in Blotto/BSA at 4° C. for 16 hours:
(§8) • 3. Blotto/BSA was replaced with fresh one and ^32P-labelled RII subunits were added (10^5 cpm/ml). This was incubated for 4-6 h at room temperature. • 4. The membrane was washed for 4×15 min in Blotto/BSA and for 2×10 min in 10 mM potassium phosphate buffer, pH 7.4, 0.15 M NaCl. • 5. RII-binding proteins were detected by exposition on a phosphoimager plate.
(§9) Identification of AKAP18δ-derived peptides inhibiting the interaction of AKAP proteins with the regulatory RIIα and RIIβ subunits of PKA. A: Peptides derived from the PKA binding domain of AKAP18δ were synthesized on two membranes. The membranes were incubated with radiolabelled regulatory RIIα (upper row) or RIIβ subunits (row below) of the PKA (RII overlay experiment). […]

The target of a further assay is RIIα subunits of the PKA (Homo sapiens, UniProt P13861). In words: Summary statement on RIIα binding of AKAP18δ-derived peptides. Particulars: in words. The text has this: We explain this by binding via hydrogen bridges (H bridges) between peptide and RII dimer (see Fig., hydrogen bridges represented by broken lines). Correspondingly, a common feature of the peptides is the minimum number (8) of amino acids forming H bridges.
RIIα subunits of the PKA, sequence (P13861 whole entry): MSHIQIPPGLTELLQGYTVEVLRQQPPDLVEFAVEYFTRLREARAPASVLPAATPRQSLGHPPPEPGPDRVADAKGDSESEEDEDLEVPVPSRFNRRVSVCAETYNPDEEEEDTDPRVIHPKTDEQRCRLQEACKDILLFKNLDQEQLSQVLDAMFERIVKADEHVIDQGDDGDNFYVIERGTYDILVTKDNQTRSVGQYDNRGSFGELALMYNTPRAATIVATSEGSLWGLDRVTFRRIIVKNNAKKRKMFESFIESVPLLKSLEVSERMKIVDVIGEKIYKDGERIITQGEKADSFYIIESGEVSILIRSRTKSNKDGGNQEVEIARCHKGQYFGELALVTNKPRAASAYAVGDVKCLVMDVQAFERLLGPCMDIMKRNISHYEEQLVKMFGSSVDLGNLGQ

Assay [2] deals with T2, regulatory RIIα subunits of PKA (Homo sapiens, UniProt P13861).
T2 construct: Prof; Dr. Friedrich W. Herberg, University of Kassel, Germany (obtained from an academic laboratory, not a vendor)
T2 sequence (P13861 whole entry): as above
The assay can be described thus: RII overlay of membrane-bound (SPOT) peptides, radiolabelled RIIα as probe, densitometry. Format: binding. Particulars: human RIIα as probe; in words.
Source text: as §1, §2, §3, §4, §5, §6, §7, §8, §9

Another assay deals with RIIβ subunits from rats (Rattus norvegicus, UniProt P12369). In words: Surface plasmon resonance measurement of peptide binding to RIIβ. (SPR reads the build-up and loss of mass on a sensor chip optically.)
RIIβ subunits from rats, sequence (P12369 whole entry): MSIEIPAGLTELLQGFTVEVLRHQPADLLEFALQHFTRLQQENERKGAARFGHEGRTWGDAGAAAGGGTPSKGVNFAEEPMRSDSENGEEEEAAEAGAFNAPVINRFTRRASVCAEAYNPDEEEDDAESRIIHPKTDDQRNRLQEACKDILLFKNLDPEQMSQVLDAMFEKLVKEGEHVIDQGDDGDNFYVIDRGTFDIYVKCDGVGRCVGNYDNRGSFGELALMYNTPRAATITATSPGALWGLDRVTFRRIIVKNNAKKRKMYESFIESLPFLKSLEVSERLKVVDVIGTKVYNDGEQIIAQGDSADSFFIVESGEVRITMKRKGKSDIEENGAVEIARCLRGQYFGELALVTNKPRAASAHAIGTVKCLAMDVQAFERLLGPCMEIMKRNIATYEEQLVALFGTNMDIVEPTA
For the next assay, the target named is human RIIα subunits (Homo sapiens, UniProt P13861). In words: Surface plasmon resonance measurement of peptide binding to RIIα.
human RIIα subunits, sequence (P13861 whole entry): as the sequence (P13861 whole entry) above
Assay [3] has as its target murine RIIα subunit of PKA (Mus musculus, UniProt P12367). As to conditions: Alto et al. (2003); cited from earlier work.
Assay [4] addresses T3, regulatory RIIβ subunit of PKA (rat) (rat, UniProt P12369 1-416, 32P-labelled with the catalytic subunit of PKA when used as probe in the RII overlay experiments).
T3 construct: Radiolabelled probe in RII overlays; format in the surface plasmon resonance measurements is not described; also called RIIβ subunit of PKA from rats
In words: RII overlay on SPOT membrane, densitometry; references AKAP18δ-L304T and AKAP18δ-L314E.

Assay [5] concerns the target T4, regulatory RIIα subunit of PKA (human) (human, UniProt P13861 1-404, 32P-labelled with the catalytic subunit of PKA when used as probe in the RII overlay experiments).
T4 construct: Radiolabelled probe in RII overlays; format in the surface plasmon resonance measurements is not described; also called human RIIα
Described as above.

The target of assay [6] is T3, regulatory RIIβ subunit of PKA (rat). In words: RII overlay on SPOT membrane, densitometry; reference AKAP18δ-wt.
Assay [7] addresses T4, regulatory RIIα subunit of PKA (human). Described as above.
The test system of the next assay is RII subunits of the PKAs. In words: Summary statement on RII binding of AKAP18δ-derived negative control peptides. Particulars: negative controls; in words. The text has this:
They have in common that binding is no longer present due to structural differences (1, 2) or differences in charge (3, 4).

The target of assay [8] is T3, regulatory RIIβ subunit of PKA (rat). In words: RII overlay on SPOT membrane with radiolabelled RIIβ.
The target in assay [9] is T4, regulatory RIIα subunit of PKA (human). The assay can be described thus: RII overlay on SPOT membrane with radiolabelled RIIα.
For assay [10], the target named is T3, regulatory RIIβ subunit of PKA (rat). The assay can be described thus: surface plasmon resonance.
Assay [11] concerns the target T4, regulatory RIIα subunit of PKA (human). In words: surface plasmon resonance.

T3 sequence (P12369 whole entry): as the sequence (P12369 whole entry) above
T1 sequence (P12369 whole entry): as above
T4 sequence (P13861 whole entry): as the sequence (P13861 whole entry) above
murine RIIα subunit of PKA, sequence (P12367 whole entry): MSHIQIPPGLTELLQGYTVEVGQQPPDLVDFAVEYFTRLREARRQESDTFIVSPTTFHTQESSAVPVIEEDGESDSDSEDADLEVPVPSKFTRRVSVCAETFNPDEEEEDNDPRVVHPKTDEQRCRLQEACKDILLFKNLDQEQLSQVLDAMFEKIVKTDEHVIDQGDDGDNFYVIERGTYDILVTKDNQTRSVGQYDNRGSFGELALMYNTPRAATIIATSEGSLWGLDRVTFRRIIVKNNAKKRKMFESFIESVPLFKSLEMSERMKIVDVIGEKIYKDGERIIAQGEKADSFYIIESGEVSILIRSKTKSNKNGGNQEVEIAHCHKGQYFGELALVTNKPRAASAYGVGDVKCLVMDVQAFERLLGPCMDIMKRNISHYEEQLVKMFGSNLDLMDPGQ

Consider `CC(C)C[C@H](NC(=O)[C@H](CCCNC(=N)N)NC(=O)[C@@H](NC(=O)[C@H](CC(C)C)NC(=O)[C@H](CCC(=O)O)NC(=O)[C@H](C)NC(=O)[C@H](CC(=O)O)NC(=O)[C@H](CCC(=O)O)NC(=O)[C@@H]1CCCN1)C(C)C)C(=O)N[C@@H](CO)C(=O)N[C@@H](CCCCN)C(=O)N[C@@H](CCCNC(=N)N)C(=O)N[C@@H](CC(C)C)C(=O)N[C@H](C(=O)N[C@@H](CCC(=O)O)C(=O)N[C@@H](CC(N)=O)C(=O)N[C@@H](C)C(=O)N[C@H](C(=O)N[C@@H](CCC(=O)O)C(=O)N[C@@H](CCCCN)C(=O)N[C@@H](C)C(=O)N[C@H](C(=O)N[C@@H](CCC(N)=O)C(=O)N[C@@H](CCC(N)=O)C(=O)N[C@@H](Cc1ccc(O)cc1)C(=O)O)C(C)C)C(C)C)C(C)C` [AKAP18δ-L314E], for which, in [1], the “binding to RIIβ subunits in RII overlay” value was “stronger binding; also recorded: bind strongly”. The “RIIα binding compared with peptides derived from natural AKAPs” value on RIIα subunits of the PKA is recorded as “bind stronger than any other peptide derived from natural AKAPs”. Further, the “binding to RIIα subunits in RII overlay” value in assay [2] is on record as “stronger binding; also recorded: bind strongly”.

Usually Kd stands for the constant that tells how readily two partners part at equilibrium. On to “AKAPIS [peptide developed by Alto et al. (2003); IS, in silico, reference compound]”, for which the “RIIβ binding KD” value at RIIβ subunits from rats is on record as “no binding”. In addition, in [1], the “binding to RIIβ subunits in RII overlay” value is “barely bind”. Besides, the “RIIα binding KD” value at human RIIα subunits is listed as “no binding”. Besides, in assay [3], the Kd was 0.45 nM and the “affinity increased compared to the Ht31 peptide” value was 5 times. Besides, the “binding to RIIα subunits in RII overlay” value in assay [2] is recorded as “barely bind”.

Turning to “EPEDAELVRLSKRLVENAVLKAVQQYLEETQ (listed as Homo sapiens) [AKAP18δ-RI]”, the “binding to RIIβ subunits in RII overlay” value in assay [1] is “weaker”. For the same molecule, the “RIIα binding compared with peptides derived from natural AKAPs” value with RIIα subunits of the PKA is “bind stronger than any other peptide derived from natural AKAPs”. Besides, in assay [2], the “binding to RIIα subunits in RII overlay” value was “weaker”.

On to Ht31 (peptide), for which the fold weaker binding than AKAP18δ-L304T and AKAP18δ-L314E in assay [4] and in [5] was 5 to 6 fold each time. For the same molecule, the fold weaker binding than AKAP18δ-wt in assay [6] and in [7] was 5 fold in each case.

Take “KGADLIEEAASRIVDAVIEQVKAAG [Ht31, reference compound]”: the values for the Kd (at RIIβ subunits from rats; on human RIIα subunits; in assay [3]) were 35 nM, 15 nM and 2.2 nM, respectively.

Regarding “PEDAELVRLSKRDVENAVLKAVQQY [AKAP18δ-L308D]”, the “RIIβ binding KD” value on RIIβ subunits from rats is given as “no binding”. Further, the “binding to RIIβ subunits in RII overlay” value in assay [1] was “weaker”. The “binding of RII subunits of the PKAs” value in the assay with RII subunits of the PKAs is given as “absent binding”. Also, the “RIIα binding KD” value on human RIIα subunits was “no binding”. For the same molecule, in assay [2], the “binding to RIIα subunits in RII overlay” value was “weaker”.

For the molecule “PEDAELVRTSKRLVENAVLKAVQQY [AKAP18δ-L304T]”, the equilibrium dissociation constant (Kd) on RIIβ subunits from rats is 35 nM; on human RIIα subunits, 0.3 to 0.9 nM. Moreover, the “binding to RIIβ subunits in RII overlay” value in [1] is listed as “stronger binding; also recorded: bind strongly”. In addition, the “RIIα binding compared with peptides derived from natural AKAPs” value at RIIα subunits of the PKA is “bind stronger than any other peptide derived from natural AKAPs”. Also, the “binding to RIIα subunits in RII overlay” value in [2] was “stronger binding; also recorded: bind strongly”.

B1: A18δRIIαRn2 (10/11) (peptide)
peptide: ANDARLVRLNKRLVENAVLKAVQQY
notes: Member of the substitution library of peptide 7 (row 10, peptide 11); also called peptide 10/11; No. EE
As for B1, the binding result in assay [8] is given as “no binding”; in assay [9] it was “binds”.

B2: A18δRIIβRn1 (21/4) (peptide)
peptide: ANDARLVRLSKRLVENAVLKFVQQY
notes: Member of the substitution library of peptide 7 (row 21, peptide 4); also called peptide 21/4; A18δRIIβRnl
Take B2: the binding result in assay [8] is “binds”; in assay [9], “no binding”.

B3: A18δRIIαRn3 (10/12) (peptide)
peptide: ANDARLVRLPKRLVENAVLKAVQQY
notes: Member of the substitution library of peptide 7 (row 10, peptide 12); also called peptide 10/12; No. FF
Consider B3, for which the binding result was “no binding” in assay [8] and “binds” in [9].

The molecule PEDAELVRLSKRLVENAVEKAVQQY (also called AKAP18delta-L314E; No. W) [AKAP18δ-L314E] showed a Kd in assay [10] of 22 nM.

B4: AKAP18δ-PP (peptide)
peptide: PEDAELVRLSKRLPENAPLKAVQQY
notes: Double proline-substituted negative control; also called AKAP18delta-PP
For the molecule B4, the binding result in [10] and in [11] was “no binding” throughout.

B5: AKAP18δ-P (peptide)
peptide: PEDAELVRLSKRLPENAVLKAVQQY
notes: Proline-substituted negative control; also called AKAP18delta-P; No. X
With B5, the binding result in [10] and in [11] was “no binding” throughout.

The record behind these values is patent US20090104177A1, “PEPTIDES FOR INHIBITING THE INTERACTION OF PROTEIN KINASE A AND PROTEIN KINASE A ANCHOR PROTEINS” (FORSCHUNGSVERBUND BERLIN E.V., priority 2004, published 2009).
